Reference: US20260183273A1, “N,N-dialkyl-4-(2-ethylindan-2-yl)-1H-imidazole-1-carboxamides and related compounds for treatment of neurodegenerative diseases” (priority 2023, published 2026)
Where two headings read alike, the source gives them in different places.

Assays:
[1] = Hydrolysis in plasma (LC-MS); type: in vitro ADME, human
Procedure: Samples were analysed by LC-MS system, which included Thermo Scientific UltiMate 3000 UHPLC liquid chromatograph and Thermo Scientific Exactive Plus Hybrid Quadrupole-Orbitrap mass spectrometer. The general method used a Waters Acquity UPLC® BEH C18 column (2.1×50 mm, 1.7 μm) and Waters Vanguard UPLC® BEH C18 precolumn (2.1×5 mm, 1.7 μm), thermostated at 40° C., with: injection volume, 1 μL; flow rate, 0.4 mL/min; autosampler temperature: 15° C., detector Full MS-SIM (runtime 1.5-3 min, positive mode, resolution: 70 000; AGC target: 3e^6; maximum IT: 200 ms; scan range: 200-300 m/z); mobile phase A: 0.1% formic acid in MQ water; B: 0.1% formic acid in acetonitrile. Gradient: 0-3 min, 20-75% B; 3-3.1 min 75-95% B; 3.1-4 min 95% B; 4-4.1 min 95-20% B; 4.1-6 min 20% B. Processing: ICIS peak detection algorithm, analyte 6—expected retention time: 1.87 min, 30 s window, mass range 213.14; analyte 7—expected retention time: 2.40 min, 30 s window, mass range 284.18.
To construct the calibration curves, the highest concentration (800 nM) stock solution was prepared in plasma, and serially diluted with plasma to different compound concentrations (8, 20, 40, 60, 80, 200, 400, 600, 800 nM). 50 μL of the respective biological sample were diluted with 200 μL MeOH, vortexed, centrifuged at 4° C. and 5000 rpm for 10 min, the supernatant transferred to HPLC vials with inserts, and analysed. 5 replicates were injected to check the precision, and to ascertain the matrix effects in plasma, 0.5 μL of […] 6 was diluted with 49.5 μL of either plasma or MQ water. […] To monitor the progress of 7 hydrolysis in plasma, 1 vol. % of 7.5 μM 7 stock solution was mixed with plasma, 50 μL aliquots were drawn successively after 1, 5, and 60 min and analysed as described above. In a control experiment, the plasma used was pretreated for 5 min with 1 mM ethopropazine to inhibit BChE, then 7 was added, and the above procedure followed.
(§1) As both 7 and BChE were being depleted, near the final timepoint the reaction rate slowed down considerably. […] 7 is readily hydrolysed in contact with plasma BChE—therefore, after an in vivo application (either parenteral or per os), adrenergic-active moiety 6 should be liberated in the bloodstream, permeate the blood-brain barrier, and reach the site of action in the central nervous system.

[2] = biological target: hAChE (Homo sapiens, UniProt P22303); assay: biochemical; type: biochemical
Procedure: (§2) For time-dependency measurements, the pre-incubation time was varied (1 min, 5 min, 15 min, 30 min or 60 min). The reactions were started by the addition of the substrate (final concentration, 500 μM butyrylthiocholine iodide or acetylthiocholine iodide for hBChE and hAChE, respectively). The final content of DMSO was always 1%. […] The initial velocities in the presence (vi) and absence (vo) of the test compounds were calculated. The inhibitory potencies were expressed as the residual activities, according to RA=(vi−b)/(vo−b), where b is the blank value using phosphate buffer without ChEs. For IC50 determinations, at least seven different concentrations for each compound were used. The IC50 values were obtained by plotting the residual ChE activities against the applied inhibitor concentrations, with the experimental data fitted to a four-parameter logistic function (GraphPad Prism 9.4). Tacrine and donepezil were used as positive controls.

[3] = biological target: hBChE (Homo sapiens, UniProt P06276); assay: Inhibition of cholinesterases, method of Ellman (hBChE); type: biochemical; conditions: for hBChE time-dependency observed: yes/no: pre-incubation time varied (1, 5, 15, 30 or 60 min); for hBChE RA-residual activity: mean ± standard deviation, test concentration not given
Procedure: as §2

[4] = Non-enzymatic hydrolysis (aqueous stability); type: physicochemical; conditions: compared with hydrolysis in plasma
Procedure: Reactions were monitored using analytical thin-layer chromatography (TLC) on silica gel 60 F254 Al plates. Developed plates were inspected under UV light and, if necessary, visualized with ninhydrin, vanillin/sulfuric acid, Dragendorff's or potassium permanganate stains. Melting points were determined with Büchi 535 Melting Point Apparatus (uncorrected). Nuclear magnetic resonance spectra were recorded on a Bruker Avance III 400 MHz spectrometer at 400 MHz for ^1H, 100 MHz for ^13C, and 376 MHz for ^19F nucleus, respectively, using CDCl3 with TMS as the internal standard as solvent. […] Mass spectra were recorded on Thermo Scientific Q Executive Plus LC-MS/MS spectrometer and IR spectra on Thermo Nicolet FT-IR spectrophotometer. […] The purities of the tested compounds were established to be ≥95%, as determined by UPLC.
as §1

[5] = biological target: T1, human α2A adrenoreceptor from CHO cells (Homo sapiens, UniProt P08913); assay: α2A binding assay (Eurofins), antagonist radioligand [3H]RX821002
T1 construct: host or cells: CHO cells
T1 sequence (P08913 1-465): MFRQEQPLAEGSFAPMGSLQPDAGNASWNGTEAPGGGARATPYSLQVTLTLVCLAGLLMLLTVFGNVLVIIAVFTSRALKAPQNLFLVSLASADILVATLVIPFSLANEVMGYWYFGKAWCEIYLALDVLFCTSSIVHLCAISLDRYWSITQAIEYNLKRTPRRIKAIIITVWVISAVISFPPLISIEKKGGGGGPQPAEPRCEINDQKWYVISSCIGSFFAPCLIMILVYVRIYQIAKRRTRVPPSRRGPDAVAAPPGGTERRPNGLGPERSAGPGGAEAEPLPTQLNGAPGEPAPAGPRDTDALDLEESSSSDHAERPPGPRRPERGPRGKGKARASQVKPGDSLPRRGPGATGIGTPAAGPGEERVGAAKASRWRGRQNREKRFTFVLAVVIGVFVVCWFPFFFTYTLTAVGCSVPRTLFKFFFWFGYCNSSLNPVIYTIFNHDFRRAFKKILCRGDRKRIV
Procedure: In each experiment the respective reference compound (yohimbine) was tested concurrently with the test compounds, and the data were compared with historical values determined at Eurofins. The experiment was accepted in accordance with Eurofins validation Standard Operating Procedure. Inhibition above 50% is considered to represent significant effects of the test compounds. The inhibition constants (Ki) were calculated using the Cheng-Prusoff equation.

[6] = control plasma with 1 mM ethopropazine, nominal 75 nM 7, timepoint 60 min
[7] = hydrolysis of 7 in human plasma, nominal 75 nM, timepoint 1 min
[8] = hydrolysis of 7 in human plasma, nominal 75 nM, timepoint 5 min
[9] = hydrolysis of 7 in human plasma, nominal 75 nM, timepoint 60 min
[10] = 5 min preincubation, read-out: hBChE IC50 ± SEM
[11] = pre-incubation time varied (1, 5, 15, 30 or 60 min)

Chain of hAChE (P22303 32-614): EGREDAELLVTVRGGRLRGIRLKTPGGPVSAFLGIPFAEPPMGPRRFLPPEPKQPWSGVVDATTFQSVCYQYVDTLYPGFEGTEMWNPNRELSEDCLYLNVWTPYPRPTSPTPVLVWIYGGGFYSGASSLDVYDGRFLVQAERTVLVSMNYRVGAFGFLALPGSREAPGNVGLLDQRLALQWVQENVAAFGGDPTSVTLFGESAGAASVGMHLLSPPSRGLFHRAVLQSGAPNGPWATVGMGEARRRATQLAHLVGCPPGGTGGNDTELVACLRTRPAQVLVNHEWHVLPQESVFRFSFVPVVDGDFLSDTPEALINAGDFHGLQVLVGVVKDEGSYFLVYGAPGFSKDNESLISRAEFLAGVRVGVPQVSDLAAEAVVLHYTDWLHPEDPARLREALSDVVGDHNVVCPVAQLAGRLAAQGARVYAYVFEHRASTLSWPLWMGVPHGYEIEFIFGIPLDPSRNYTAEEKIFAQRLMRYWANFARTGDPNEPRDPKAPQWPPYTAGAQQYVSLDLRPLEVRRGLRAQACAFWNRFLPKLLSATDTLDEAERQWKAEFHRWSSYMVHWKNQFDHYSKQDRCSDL
Chain of hBChE (P06276 29-602): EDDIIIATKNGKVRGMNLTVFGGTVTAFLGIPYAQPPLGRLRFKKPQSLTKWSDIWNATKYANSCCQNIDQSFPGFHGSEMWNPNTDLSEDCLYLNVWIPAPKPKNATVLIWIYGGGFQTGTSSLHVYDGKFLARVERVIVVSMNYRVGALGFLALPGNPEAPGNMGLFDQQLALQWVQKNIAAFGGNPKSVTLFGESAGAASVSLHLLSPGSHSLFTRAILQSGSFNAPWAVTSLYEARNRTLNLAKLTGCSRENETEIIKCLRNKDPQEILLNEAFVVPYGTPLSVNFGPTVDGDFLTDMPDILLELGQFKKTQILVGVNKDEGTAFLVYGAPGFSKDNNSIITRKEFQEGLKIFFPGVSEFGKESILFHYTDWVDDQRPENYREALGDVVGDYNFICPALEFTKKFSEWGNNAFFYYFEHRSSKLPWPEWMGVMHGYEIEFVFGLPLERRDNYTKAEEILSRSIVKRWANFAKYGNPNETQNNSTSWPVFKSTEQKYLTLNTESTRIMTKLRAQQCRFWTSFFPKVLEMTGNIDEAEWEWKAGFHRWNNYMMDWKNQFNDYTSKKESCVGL

With `CCC1(c2cnc[nH]2)Cc2ccccc2C1` [Compound 6, 4-(2-ethylindan-2-yl)-1H-imidazole] the concentration of analyte [1, 6] was 9.816 nM, the concentration of analyte [1, 7] was 15.911 nM and the concentration of analyte [1, 8] was 29.071 nM. For the same compound, the concentration of analyte [1, 9] was 65.375 nM.
With `CCC1(c2cn(C(=O)N(C)C)cn2)Cc2ccccc2C1` [Compound 7, 4-(2-Ethylindan-2-yl)-N,N-dimethyl-1H-imidazole-1-carboxamide] the “hAChE time-dependency observed: yes/no” value [2] was 30507 ± 6304 yes, the IC50 ([2]; read-out: hAChE IC50 ± SEM) was 30500 ± 6300 nM and the concentration of analyte ([1]; control plasma with 1 mM ethopropazine, nominal 75 nM 7, timepoint 1 min) was 74.477 nM. For the same compound, the concentration of analyte ([1]; control plasma with 1 mM ethopropazine, nominal 75 nM 7, timepoint 5 min) was 72.158 nM, the concentration of analyte [1, 6] was 71.131 nM and the concentration of analyte [1, 7] was 66.508 nM. For the same compound, the concentration of analyte [1, 8] was 55.665 nM, the concentration of analyte [1, 9] was 22.431 nM and the IC50 [3, 10] was 12.6 ± 2 nM. The “hBChE time-dependency observed: yes/no” value [3] was “yes”, the non-enzymatic hydrolysis rate [4] was “several orders of magnitude slower” and the inhibition at 1 µM [5] was 6%.
With `CCN(CC)C(=O)n1cnc(C2(CC)Cc3ccccc3C2)c1` [Compound 8, N,N-diethyl-4-(2-ethylindan-2-yl)-1H-imidazole-1-carboxamide] the “hAChE IC50 ± SEM” value [2] was “Not active (66.8 ± 4.7%) no”, the “hAChE RA-residual activity” value [2] was “Not active (66.8 ± 4.7%) no” and the IC50 [3, 10] was 1460 ± 218 nM. The “hBChE time-dependency observed: yes/no” value [3] was “yes”.
With `CCC1(c2cn(C(=O)N(C)C)c[n+]2C)Cc2ccccc2C1` [Compound 9, 1-(Dimethylcarbamoyl)-4-(2-ethylindan-2-yl)-3-methyl-1H-imidazol-3-ium trifluoromethanesulfonate] the IC50 [2] was 431 ± 113 nM, the “hAChE time-dependency observed: yes/no” value [2, 11] was “yes” and the IC50 [3] was 4.18 ± 0.77 nM. For the same compound, the “hBChE time-dependency observed: yes/no” value [3] was “yes”.
In the case of `CCC1(c2cn[nH]n2)Cc2ccccc2C1` [Compound 13, 4-(2-Ethylindan-2-yl)-2H-1,2,3-triazole], the “hAChE IC50 ± SEM” value [2] is reported as “Not active (87.3 ± 7.5%)”, the “hAChE RA-residual activity” value [2] is reported as “Not active (87.3 ± 7.5%)” and the “hBChE IC50 ± SEM” value ([3]; 5 min preincubation) is reported as “Not active”. The “hBChE RA-residual activity” value ([3]; 5 min preincubation) was 60.3 ± 1.0% and the inhibition at 1 µM [5] was 6.1%.
With `CCC1(c2cnn(C(=O)N(C)C)n2)Cc2ccccc2C1` [Compound 14, 4-(2-Ethylindan-2-yl)-N,N-dimethyl-2H-1,2,3-triazole-2-carboxamide] the “hAChE time-dependency observed: yes/no” value [2] was 180.9 ± 35.5 yes, the IC50 ([2]; read-out: hAChE IC50 ± SEM) was 181 ± 35.5 nM and the IC50 [3, 10] was 2.39 ± 0.63 nM. For the same compound, the “hBChE time-dependency observed: yes/no” value [3] was “yes”.
With `CCC1(c2nc[nH]n2)Cc2ccccc2C1` [Compound 15, 3-(2-Ethylindan-2-yl)-1H-1,2,4-triazole] the “hAChE IC50 ± SEM” value [2] was “Not active (79.8 ± 7.0%)”, the “hAChE RA-residual activity” value [2] was “Not active (79.8 ± 7.0%)” and the “hBChE IC50 ± SEM” value ([3]; 5 min preincubation) was “Not active”. For the same compound, the “hBChE RA-residual activity” value ([3]; 5 min preincubation) was 95.9 ± 6.8% and the inhibition at 1 µM [5] was 2.1%.
For `CCC1(c2ncn(C(=O)N(C)C)n2)Cc2ccccc2C1` [Compound 16, 3-(2-Ethylindan-2-yl)-N,N-dimethyl-1H-1,2,4-triazole-1-carboxamide], the IC50 ([2]; read-out: hAChE IC50 ± SEM) was 1980 ± 239 nM, the IC50 [3, 10] was 4.12 ± 0.35 nM and the “hBChE time-dependency observed: yes/no” value [3] was “yes”.
In the case of `CCC1(c2cn(C(=O)N(C)Cc3ccccc3)cn2)Cc2ccccc2C1` [Compound 17, N-benzyl-4-(2-ethylindan-2-yl)-N-methyl-1H-imidazole-1-carboxamide], the “hAChE RA-residual activity” value [2] is reported as 46.4 ± 3.3% yes, the IC50 [3, 10] is reported as 95.7 ± 17.1 nM and the “hBChE time-dependency observed: yes/no” value [3] is reported as “yes”.
For `CCC1(c2cn(C(=O)N3CCCCC3)cn2)Cc2ccccc2C1` [Compound 18, (4-(2-ethylindan-2-yl)-1H-imidazol-1-yl)(piperidin-1-yl)methanone], the IC50 ([2]; read-out: hAChE IC50 ± SEM) was 5180 ± 1620 nM, the IC50 [3, 10] was 4.8 ± 0.944 nM and the “hBChE time-dependency observed: yes/no” value [3] was “yes”.
In the case of `[2H]C([2H])([2H])C([2H])([2H])C1(c2cn(C(=O)N(CC)CC)cn2)Cc2ccccc2C1` [Compound 21, N,N-diethyl-4-(2-(ethyl-d5)indan-2-yl)-1H-imidazole-1-carboxamide], the “hAChE RA-residual activity” value ([2]; 5 min preincubation, mean ± standard deviation, test concentration not given) is reported as 58.9 ± 2.3%, the “hAChE time-dependency observed: yes/no” value [2, 11] is reported as “yes” and the IC50 [3, 10] is reported as 7830 ± 1320 nM. For the same compound, the “hBChE time-dependency observed: yes/no” value [3] was “yes”.
